Active and inactive are the calls of the source.
Key:
[1] = target: T1, Long-chain-fatty-acid--AMP ligase FadD28 (Mycobacterium tuberculosis, UniProt P9WQ59); test: Fluorescence polarization aasay to screen for inhibitors that compete for the binding of FadD28 to a bisubstrate Measured in Biochemical System Using Plate Reader - 2147-01_Inhibitor_Dose_CherryPick_Activity.; format: functional, Mycobacterium tuberculosis H37Rv
T1 sequence (P9WQ59 whole entry): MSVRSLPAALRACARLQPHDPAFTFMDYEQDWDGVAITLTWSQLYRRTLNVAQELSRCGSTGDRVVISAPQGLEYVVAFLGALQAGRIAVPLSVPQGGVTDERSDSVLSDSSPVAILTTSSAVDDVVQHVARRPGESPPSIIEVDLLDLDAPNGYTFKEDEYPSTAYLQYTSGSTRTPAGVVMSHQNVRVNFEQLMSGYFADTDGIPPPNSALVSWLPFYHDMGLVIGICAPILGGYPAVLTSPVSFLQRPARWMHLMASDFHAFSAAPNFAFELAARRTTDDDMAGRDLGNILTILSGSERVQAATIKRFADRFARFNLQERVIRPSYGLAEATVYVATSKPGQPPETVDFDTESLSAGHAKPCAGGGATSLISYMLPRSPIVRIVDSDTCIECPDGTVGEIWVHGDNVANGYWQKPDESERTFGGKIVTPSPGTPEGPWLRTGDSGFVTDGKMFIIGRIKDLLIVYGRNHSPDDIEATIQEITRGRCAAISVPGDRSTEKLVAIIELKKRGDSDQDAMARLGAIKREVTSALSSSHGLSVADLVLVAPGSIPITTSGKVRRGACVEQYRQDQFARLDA

[2] = target: Cytochrome P450 2C9 (Homo sapiens, UniProt P11712)
Cytochrome P450 2C9, sequence (P11712 whole entry): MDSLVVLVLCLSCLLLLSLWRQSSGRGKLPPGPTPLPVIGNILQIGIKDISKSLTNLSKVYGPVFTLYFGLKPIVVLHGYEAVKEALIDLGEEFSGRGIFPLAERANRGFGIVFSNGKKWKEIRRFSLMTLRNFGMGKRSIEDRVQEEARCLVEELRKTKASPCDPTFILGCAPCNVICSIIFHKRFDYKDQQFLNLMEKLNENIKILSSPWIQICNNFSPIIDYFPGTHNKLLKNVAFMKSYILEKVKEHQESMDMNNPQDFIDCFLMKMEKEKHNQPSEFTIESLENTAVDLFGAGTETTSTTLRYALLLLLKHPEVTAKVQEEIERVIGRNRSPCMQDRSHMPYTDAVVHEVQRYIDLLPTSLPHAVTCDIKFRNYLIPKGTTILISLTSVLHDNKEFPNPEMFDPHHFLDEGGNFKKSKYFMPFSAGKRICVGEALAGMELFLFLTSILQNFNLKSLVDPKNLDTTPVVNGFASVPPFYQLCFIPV

[3] = target: Cytochrome P450 2C19 (Homo sapiens, UniProt P33261); test: Cytochrome panel assay with activity outcomes. Panel member name: p450-cyp2c19 Compounds with AC50 equal or less than 10 uM are considered active; format: functional; conditions: read-out: AC50
Cytochrome P450 2C19, sequence (P33261 whole entry): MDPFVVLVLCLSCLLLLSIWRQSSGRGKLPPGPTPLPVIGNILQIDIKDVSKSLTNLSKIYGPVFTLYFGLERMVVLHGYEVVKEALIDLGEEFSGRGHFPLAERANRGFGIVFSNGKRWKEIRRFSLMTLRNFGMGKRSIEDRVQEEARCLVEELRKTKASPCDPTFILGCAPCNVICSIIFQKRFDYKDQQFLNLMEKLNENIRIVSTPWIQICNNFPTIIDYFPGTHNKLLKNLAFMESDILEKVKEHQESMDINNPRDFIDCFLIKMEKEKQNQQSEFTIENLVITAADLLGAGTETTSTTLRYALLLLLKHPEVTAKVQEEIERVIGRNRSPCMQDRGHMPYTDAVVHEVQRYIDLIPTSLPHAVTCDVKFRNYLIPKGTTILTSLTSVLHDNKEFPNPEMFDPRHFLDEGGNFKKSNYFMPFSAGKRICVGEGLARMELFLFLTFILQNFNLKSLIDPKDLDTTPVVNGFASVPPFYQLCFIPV

[4] = target: Cytochrome P450 3A4 (Homo sapiens, UniProt P08684);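 note: CYP3A4 tested as one member of a cytochrome P450 panel screen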
Cytochrome P450 3A4, sequence (P08684 whole entry): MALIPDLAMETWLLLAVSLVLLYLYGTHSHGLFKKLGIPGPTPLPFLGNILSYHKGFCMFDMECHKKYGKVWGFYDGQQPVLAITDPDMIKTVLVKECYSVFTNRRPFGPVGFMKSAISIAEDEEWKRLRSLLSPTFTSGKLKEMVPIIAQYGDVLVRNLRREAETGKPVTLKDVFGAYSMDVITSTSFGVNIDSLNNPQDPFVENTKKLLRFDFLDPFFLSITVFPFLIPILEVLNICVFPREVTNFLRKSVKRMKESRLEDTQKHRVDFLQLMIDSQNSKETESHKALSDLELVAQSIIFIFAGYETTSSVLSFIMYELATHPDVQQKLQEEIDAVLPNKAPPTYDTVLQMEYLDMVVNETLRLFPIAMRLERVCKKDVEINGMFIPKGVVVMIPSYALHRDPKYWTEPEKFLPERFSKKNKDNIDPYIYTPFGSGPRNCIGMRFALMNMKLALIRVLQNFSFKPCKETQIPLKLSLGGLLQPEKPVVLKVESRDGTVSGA

[5] = test system: INS1; test: beta cell apoptosis inhibitors, cytokine rescue, dose response, luminescence, retest (AID 449756); format: functional, cell-based; conditions: Rattus norvegicus;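 note: cell death triggered by IL-1 beta plus TNF-alpha plus IFN-gamma mixture; protective hits raise ATP signal compared with cytokine alone wells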
[6] = target: Nonstructural protein 1 (Influenza A virus, UniProt Q194T2); format: functional, Influenza A virus (A/California/07/2009(H1N1))
Nonstructural protein 1, sequence (Q194T2 whole entry): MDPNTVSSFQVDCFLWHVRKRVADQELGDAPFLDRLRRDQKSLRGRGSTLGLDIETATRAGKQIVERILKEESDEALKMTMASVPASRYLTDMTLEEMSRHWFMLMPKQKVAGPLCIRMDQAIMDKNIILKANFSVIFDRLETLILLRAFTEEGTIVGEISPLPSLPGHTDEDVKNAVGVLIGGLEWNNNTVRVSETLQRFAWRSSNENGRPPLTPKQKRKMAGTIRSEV

[7] = target: T2, Estrogen receptor (Homo sapiens, UniProt P03372);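 note: potency for inhibiting coactivator peptide recruitment to the receptor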
T2 sequence (P03372 whole entry): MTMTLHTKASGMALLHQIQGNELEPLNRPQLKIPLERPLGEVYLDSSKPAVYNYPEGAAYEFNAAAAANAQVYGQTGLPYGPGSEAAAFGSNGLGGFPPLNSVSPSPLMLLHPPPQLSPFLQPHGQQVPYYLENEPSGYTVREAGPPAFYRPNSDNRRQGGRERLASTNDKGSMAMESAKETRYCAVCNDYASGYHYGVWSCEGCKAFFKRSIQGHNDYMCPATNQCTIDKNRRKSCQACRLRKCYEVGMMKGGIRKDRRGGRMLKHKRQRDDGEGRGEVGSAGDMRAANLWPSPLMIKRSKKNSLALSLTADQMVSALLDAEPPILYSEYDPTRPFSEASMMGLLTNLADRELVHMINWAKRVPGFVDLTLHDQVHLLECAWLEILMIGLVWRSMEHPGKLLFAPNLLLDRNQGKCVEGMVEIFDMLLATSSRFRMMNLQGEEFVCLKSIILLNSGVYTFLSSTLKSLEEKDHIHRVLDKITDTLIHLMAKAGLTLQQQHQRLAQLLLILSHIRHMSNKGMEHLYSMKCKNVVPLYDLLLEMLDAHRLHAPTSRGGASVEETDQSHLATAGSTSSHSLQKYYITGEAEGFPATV

[8] = target: Induced myeloid leukemia cell differentiation protein Mcl-1 (Homo sapiens, UniProt Q07820); format: functional
Induced myeloid leukemia cell differentiation protein Mcl-1, sequence (Q07820 whole entry): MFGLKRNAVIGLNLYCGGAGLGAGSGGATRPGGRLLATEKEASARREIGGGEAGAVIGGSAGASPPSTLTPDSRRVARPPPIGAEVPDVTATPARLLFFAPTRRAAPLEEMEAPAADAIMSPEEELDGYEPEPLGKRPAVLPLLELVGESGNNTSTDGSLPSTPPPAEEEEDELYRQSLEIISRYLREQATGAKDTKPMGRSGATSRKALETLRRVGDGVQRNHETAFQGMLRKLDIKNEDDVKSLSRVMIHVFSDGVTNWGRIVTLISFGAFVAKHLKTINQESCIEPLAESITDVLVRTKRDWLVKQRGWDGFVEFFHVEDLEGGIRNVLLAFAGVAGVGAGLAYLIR

[9] = target: T3, Streptokinase A (Streptococcus pyogenes serotype M1, UniProt P10520); test: S. pyogenes streptokinase expression inhibitors, potency, dose response, plasminogen activation absorbance, OD405 (AID 1914); format: functional, Streptococcus pyogenes M1 GAS;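 note: secreted streptokinase activity via plasminogen activation per viability signal from cell pellet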
T3 sequence (P10520 whole entry): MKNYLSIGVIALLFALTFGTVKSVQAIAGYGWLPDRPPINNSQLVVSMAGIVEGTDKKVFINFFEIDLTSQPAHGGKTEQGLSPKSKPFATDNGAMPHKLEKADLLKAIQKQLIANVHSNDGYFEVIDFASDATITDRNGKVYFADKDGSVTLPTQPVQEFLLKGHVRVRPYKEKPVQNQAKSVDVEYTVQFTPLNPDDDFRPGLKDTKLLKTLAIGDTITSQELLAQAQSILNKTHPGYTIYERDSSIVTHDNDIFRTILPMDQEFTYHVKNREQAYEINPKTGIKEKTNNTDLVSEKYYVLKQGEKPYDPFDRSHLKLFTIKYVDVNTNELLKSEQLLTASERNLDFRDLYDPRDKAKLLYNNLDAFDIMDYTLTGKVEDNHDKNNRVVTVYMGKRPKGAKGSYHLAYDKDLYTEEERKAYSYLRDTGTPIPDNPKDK

[10] = test system: Streptococcus; test: Group A Streptococcus viability loss, dose response, counter-screen for streptokinase expression inhibitor project, luminescence, BacTiterGlo (AID 1915); format: functional, organism-based;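 note: potency for reduction of bacterial viability or growth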
[11] = test system: Streptococcus sp. 'group A'; test: growth inhibition of control SK(-) GAS strain, dose response, counter-screen for streptokinase expression inhibitor project, luminescence, kanamycin, BacTiterGlo, confirmation (AID 1900); format: functional, organism-based
[12] = HEp-2 cell cytotoxicity, dose response, cytotoxicity control for RSV inhibitor project, HTS (AID 2410); format: functional; conditions: human respiratory syncytial virus
[13] = test system: BJ; test: cytotoxicity toward BJ-TERT-LT-ST fibroblasts, dose response, cell-based, RAS-independent, luminescence (AID 1935); format: functional; conditions: Homo sapiens;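 note: BJ fibroblasts immortalized with TERT plus LT and ST oncogenes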
[14] = cytotoxicity toward DRD oncogenic fibroblasts, dose response, cell-based, non-viral oncogenic, luminescence (AID 1934); format: functional; conditions: Homo sapiens
[15] = cytotoxicity in HEK-293T cells, dose response, cytotoxicity control for TCR NF-kB inhibitor project, luminescence, T-cell screen hits (AID 489026); format: functional, cell-based;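 note: cells exposed to compound about 14 hours before the viability readout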
[16] = test system: BJ; test: cells; format: functional, cell-based; conditions: Homo sapiens
[17] = test system: BJ; test: cytotoxicity toward BJ-TERT fibroblasts, dose response, cell-based, RAS-independent, luminescence (AID 1933); format: functional; conditions: Homo sapiens
[18] = target: T4, Cytochrome P450 1A2 (Homo sapiens, UniProt P05177);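 note: PubChem cytochrome P450 panel assay, CYP1A2 panel member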
T4 sequence (P05177 whole entry): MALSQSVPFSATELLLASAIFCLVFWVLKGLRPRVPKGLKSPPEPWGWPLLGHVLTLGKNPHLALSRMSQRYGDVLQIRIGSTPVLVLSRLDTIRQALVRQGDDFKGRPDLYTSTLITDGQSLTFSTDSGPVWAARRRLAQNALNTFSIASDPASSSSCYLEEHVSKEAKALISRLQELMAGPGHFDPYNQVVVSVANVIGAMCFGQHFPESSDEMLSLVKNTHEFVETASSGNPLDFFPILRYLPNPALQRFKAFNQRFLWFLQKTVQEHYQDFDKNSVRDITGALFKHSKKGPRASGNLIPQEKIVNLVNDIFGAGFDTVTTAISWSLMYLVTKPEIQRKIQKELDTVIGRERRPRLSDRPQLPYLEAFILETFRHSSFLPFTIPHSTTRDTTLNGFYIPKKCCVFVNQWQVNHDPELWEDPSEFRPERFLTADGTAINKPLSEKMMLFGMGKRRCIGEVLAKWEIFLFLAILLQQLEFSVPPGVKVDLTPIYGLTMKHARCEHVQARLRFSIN

[19] = target: Cytochrome P450 2D6 (Homo sapiens, UniProt P10635);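 note: CYP2D6 member of a cytochrome P450 panel assay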
Cytochrome P450 2D6, sequence (P10635 whole entry): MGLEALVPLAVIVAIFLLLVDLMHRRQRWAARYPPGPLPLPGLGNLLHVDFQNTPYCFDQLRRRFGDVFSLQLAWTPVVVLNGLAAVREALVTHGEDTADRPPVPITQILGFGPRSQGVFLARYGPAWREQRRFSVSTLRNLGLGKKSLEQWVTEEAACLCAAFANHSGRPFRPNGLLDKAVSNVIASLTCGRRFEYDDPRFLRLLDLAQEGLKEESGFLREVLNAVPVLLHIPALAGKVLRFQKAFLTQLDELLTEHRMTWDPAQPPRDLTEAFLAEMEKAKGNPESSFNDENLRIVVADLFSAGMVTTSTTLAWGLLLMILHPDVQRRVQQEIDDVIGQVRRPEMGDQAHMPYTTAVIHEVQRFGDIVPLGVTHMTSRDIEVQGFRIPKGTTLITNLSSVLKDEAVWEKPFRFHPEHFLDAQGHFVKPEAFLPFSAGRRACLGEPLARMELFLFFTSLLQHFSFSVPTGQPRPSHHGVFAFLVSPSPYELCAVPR

With `Cc1ccc(CNC(=O)C(Cc2ccccc2)NS(=O)(=O)c2ccc(Br)s2)cc1` (stereo unspecified) the AC50 [1] was 6.7 µM (active).
For `O=C(c1ccc(Cl)cc1)N1CCN(c2cc(O)nnc2-c2ccccc2)CC1`, the AC50 [2] was 0.355 µM (inconclusive), the AC50 [3] was 1.41 µM (inconclusive) and the AC50 [4] was “inconclusive”.
With `Cc1ccc(C2C(/C=N/c3c(C)n(C)n(-c4ccccc4)c3=O)=C(c3ccccc3)Oc3ccccc32)cc1` (stereo unspecified) the AC50 [2] was 2.24 µM (inconclusive), the AC50 [5] was 6.97 µM (active) and the AC50 [3] was 3.16 µM (inconclusive). The IC50 [6] was > 100 µM (active).
In the case of `O=C1NN(c2ccc(Cl)c(Cl)c2)C(=O)/C1=C/c1cccc(OC(=O)c2cccs2)c1`, the IC50 [7] is reported as > 50 µM (not active) and the IC50 [8] is reported as 3.81 µM (active).
In the case of `CC(C)(C)c1nnc(NC(=O)c2cc(-c3ccccc3)nc3ccccc23)s1`, the EC50 [9] is reported as > 150 µM (not active), the EC50 [10] is reported as 49.3 µM (active) and the AC50 [4] is reported as “inconclusive”. The EC50 [11] was 9.69 µM (active) and the CC50 [12] was 14.1 µM (active).
In the case of `O=C1NC(=S)N(C2CC2)C(=O)/C1=C/NNC(=O)c1ccccc1Cl`, the IC50 [6] is reported as 20.4 µM (active).
With `CCOC(=O)c1[nH]c2c(c1C)C(=O)CC(c1ccco1)C2` (stereo unspecified) the IC50 [7] was 30.3 µM (not active), the EC50 [13] was 0.354 µM (inconclusive) and the EC50 [14] was 0.328 µM (active). For the same molecule, the IC50 [15] was > 80 µM (inactive), the EC50 [16] was 0.594 µM (active) and the EC50 [17] was 0.334 µM (active). For the same molecule, the IC50 [8] was 6.08 µM (active).
For `Cc1c(C2CCN(CCc3ccccc3)CC2)noc1-c1ccc(Cl)cc1`, the AC50 [18] was 25.1 µM (inconclusive), the AC50 [4] was “inconclusive” and the AC50 [19] was 1.58 µM (inconclusive).
